In patent US20210163357A1, “Composition comprising at least one microorganism and use thereof” (Evonik Operations GmbH, priority 2018, published 2021):

Tests used:
Assay type in all cases: cell-based
[1] = system: Bacillus pseudofirmus (DSM 8715); test: Compatibility of microorganisms with hydrophobizing agent and shrinkage reducer, liquid culture, turbidity; settings: WS405 5, 20 or 30 g/L; neopentyl glycol 0.7, 7 or 14 g/L; 4 days, 30° C.
Protocol: (§1) The strains Bacillus subtilis (DSM 10) and Bacillus pseudofirmus (DSM 8715) were investigated for compatibility with hydrophobizing agents and shrinkage reducers.
(§2) A mixture of 3 g of meat extract, 5 g of peptone from casein and 1000 mL of distilled water adjusted to pH 7 using HCl/NaOH for Bacillus subtilis (DSM 10) and adjusted to pH 7 using Na sesquicarbonate for Bacillus pseudofirmus (DSM 8715) was used as the medium.
(§3) A pre-culture was initially produced for each of the two strains: To this end, an inoculation dose of the spores was in each case placed into a culture tube with 8 mL of the respective medium and left overnight in a laboratory shaker at 30° C. and 200 revolutions per minute. Furthermore, aqueous stock solutions respectively having a concentration of Protectosil® WS405 (hydrophobizing agent) of 500 g/L and a concentration of neopentyl glycol (shrinkage reducer) of 280 g/L were produced.
(§4) For the main cultures two 6-well spot plates were each filled with 8 mL of medium. Then, 10 μL of the first pre-culture were added to each well of the first plate and 10 μL of the second pre-culture were added to each well of the second plate. […]

[2] = system: Bacillus subtilis (DSM 10); test: as above; settings: WS405 5, 20 or 30 g/L; neopentyl glycol 0.7, 7 or 14 g/L; 4 days, 30° C.
Protocol: as §1, §2, §3, §4

[3] = system: Bacillus subtilis DSM 32315; test: Compatibility of spores with additives on agar plates; settings: neopentyl glycol 7 g/L, Protectosil WS405 20 g/L
Protocol: For spores of the strain Bacillus subtilis DSM 32315 compatibility with neopentyl glycol (7 g/L) and Protectosil® WS405 (20 g/L) was investigated on agar plates. A mixture of 3 g of meat extract, 5 g of peptone from casein and 1000 mL of distilled water adjusted to pH 7 using HCl/NaOH was used as medium.

**Q.** Which results are given for `CC(C)(CO)CO` [neopentyl glycol]?
**A.** growth of microorganism in presence of additive (turbidity) [1]: growth of neither organism was impaired; growth of microorganism in presence of additive (turbidity) [2]: growth of neither organism was impaired; formation of colonies in presence of additive [3]: Formation of colonies was observed in all cases
